This note sets out measurements from patent US20240058460A1, “METHODS AND COMPOUNDS FOR MODULATING HUNTINGTON'S DISEASE” (Design Therapeutics, Inc., priority 2022, published 2024).

As usually defined, the IC50 is the midpoint of a concentration-inhibition curve.

Experiment [1] relates to human HTT C allele (SNP rs362331C/T) mRNA in GM09197 fibroblasts. Description: HTT mRNA, allele-specific RT-PCR in GM09197 fibroblasts, C allele. The class given is cell-based. Conditions: for GM 09197 E min 48 Hr C Allele (%): lowest % HTT observed at 0.5 nM to 1000 nM compound; for IC50: Homo sapiens, Fibroblast, 48 hr, C allele HTT mRNA normalized to GAPDH, relative to vehicle. How it is done:
(§1) Molecular Biology Toolkit: • qPCR primer probe sets: • RNA input normalization was assessed utilizing human glyceraldehyde 3-phosphate dehydrogenase (hGAPDH) TaqMan assay (ThermoFisher cat #4351370) or Human Cyclophillin ([…]) TaqMan assay (ThermoFisher cat #4351372) • Total HTT detection was assessed utilizing human Htt TaqMan assay (ThermoFisher cat #4331182) • Allele-specific detection of human HTT expression in HD cells containing the SNP rs362331C/T (Exon 50): for each assay, allele-specific probes to detect the SNP variant contained locked nucleic acid bases to improve allele discrimination, as compared to unmodified DNA probes. • 362331-F (331 forward primer) • 362331-R (331 reverse primer) • 362331-C probe: TCC CTC ATC+C+AC TGT GT • 362331-T probe: CTC+A+T+C+T+A+C TGT GT • qPCR was performed using Agpath ID one-step reverse transcriptase polymerase chain reaction (RT-PCR) reagent
(§2) Screening of HD molecules methods: GM09197 and/or GM04022 fibroblasts were cultured in T175 flasks incubated at 37° C. and 5% CO2. Once confluency was reached, the media was removed, the cells were washed with 1×PBS, and cells were dissociated using TrypLE™ Express Enzyme. Media was added to the enzyme and collected into a 15-mL conical tube and centrifuged at 500×g for 5 minutes to pellet the cells. Media and enzyme were aspirated using a serological pipette. Cells were resuspended in fresh media and counted using a Countess 3 Automated Cell Counter. Cells were plated at a density of 15,000 cells/well in a tissue culture-treated polystyrene 96-well dish and incubated at 37° C. and 5% CO2 overnight. The next day, media was removed using an 8-channel aspirator. 200 μL media/well are added back into the plate. The molecules are formulated to 1 mM and are dispensed using a Multidrop™ Pico 8 Digital Dispenser. After a 48-hour incubation with compounds, media was removed from plates, cells were washed with 1×PBS, and cells were lysed in 40 μL per well guanidinium thiocyanate buffer. RNA was isolated and purified in […] glass fiber column plates using chaotropic salts. Human mtHTT, wtHTT, and GAPDH mRNA were measured via RT-PCR using the ThermoFisher QuantStudio™ 7 Flex System in 384-well format. Results of HTT levels were normalized to GAPDH mRNA levels. Normalized HTT mRNA levels were expressed relative to vehicle-treated samples to assess fold change after molecule treatment.
(§3) Emin for each compound is the lowest % HTT concentration observed within a compound concentration of 0.5 nM to 1000 nM.

The subject of experiment [2] is human HTT T allele (SNP rs362331C/T) mRNA in GM09197 fibroblasts. Description: HTT mRNA, allele-specific RT-PCR in GM09197 fibroblasts, T allele. The class given is cell-based. Particulars: for IC50: Homo sapiens, Fibroblast, 48 hr, T allele HTT mRNA normalized to GAPDH, relative to vehicle; for Gm09197 Emin 48 hr T Allele (%): lowest % HTT observed at 0.5 nM to 1000 nM compound. As for the experimental part: as §1, §2, §3

For `CC(=O)N1c2ccc(-c3ccn(CCOCCOCCOCCOCCOCCOCCOCCOCCOCCOCCOCCOCCOCCOCCOCCNC(=O)CCNC(=O)c4nc(NC(=O)c5cc(NC(=O)CCNC(=O)c6nc(NC(=O)CCCNC(=O)c7cc(NC(=O)c8nc(NC(=O)CCNC(=O)c9cc(NC(=O)c%10nccn%10C)cn9C)cn8C)cn7C)cn6C)cn5C)cn4C)n3)cc2[C@H](Nc2ccc(C#N)cc2)C[C@@H]1C` [Compound A-56], in experiment [1], the “GM 09197 E min 48 Hr C Allele (%)” value is “C (C<80%)” and the IC50 is above 1 µM. In addition, in experiment [2], 0.104 µM corresponded to half-maximal inhibition (IC50) and the “Gm09197 Emin 48 hr T Allele (%)” value is “C (C<80%)”.
Take `Cn1cc(NC(=O)c2nc(NC(=O)CCNC(=O)c3cc(NC(=O)c4nccn4C)cn3C)cn2C)cc1C(=O)NCCCC(=O)Nc1cn(C)c(C(=O)NCCC(=O)Nc2cc(C(=O)Nc3cn(C)c(C(=O)NCCC(=O)NCCOCCOCCOCCOCCOCCOCCOCCOCCN4C[C@H](Nc5cnn(C)c(=O)c5Br)C[C@H](c5ccccc5)C4)n3)n(C)c2)n1` [Compound A-48]: in experiment [1], the “GM 09197 E min 48 Hr C Allele (%)” value is “A (A>90%)” and the IC50 is above 1 µM. In experiment [2], the IC50 was above 1 µM and the “Gm09197 Emin 48 hr T Allele (%)” value was “A (A>90%)”.
With `Cc1noc(C)c1-c1ccc2c(c1)nc(CCc1ccc(OCCOCCOCCOCCOCCOCCOCCOCCOCCOCCOCCOCCOCCOCCOCCOCCNC(=O)CCNC(=O)c3nc(NC(=O)c4cc(NC(=O)CCNC(=O)c5nc(NC(=O)CCCNC(=O)c6cc(NC(=O)c7nc(NC(=O)CCNC(=O)c8cc(NC(=O)c9nccn9C)cn8C)cn7C)cn6C)cn5C)cn4C)cn3C)c(Cl)c1)n2C[C@H](C)N1CCOCC1` [Compound A-54], the concentration for half-maximal inhibition (IC50) in experiment [1] and in experiment [2] was above 1 µM in each case.
For the molecule `Cn1cc(NC(=O)c2nc(NC(=O)CCNC(=O)c3cc(NC(=O)c4nccn4C)cn3C)cn2C)cc1C(=O)NCCCC(=O)Nc1cn(C)c(C(=O)NCCC(=O)Nc2cc(C(=O)Nc3cn(C)c(C(=O)NCCC(=O)NCCOCCOCCOCCOCCOCCOCCOCCOCCOCCOCCOCCOCCOCCOCCOCCN4C[C@H](Nc5cnn(C)c(=O)c5Br)C[C@H](c5ccccc5)C4)n3)n(C)c2)n1` [Compound A-49], in experiment [1], the “GM 09197 E min 48 Hr C Allele (%)” value is “A (A>90%)” and the IC50 is above 1 µM. Also, in experiment [2], the IC50 is above 1 µM and the “Gm09197 Emin 48 hr T Allele (%)” value was “A (A>90%)”.
As to `CCS(=O)(=O)Nc1ccc(Oc2ccc(F)cc2F)c(-c2cn(C)c(=O)c3[nH]c(C(=O)Nc4ccc(OCCOCCOCCOCCOCCOCCOCCOCCOCCNC(=O)c5cc(NC(=O)c6nc(NC(=O)c7cc(NC(=O)[C@@H](N)CCNC(=O)c8nc(NC(=O)CCNC(=O)c9cc(NC(=O)c%10nccn%10C)cn9C)cn8C)cn7C)cn6C)cn5C)cc4)cc23)c1` [Compound A-39], the IC50 in experiment [1] and in experiment [2] was above 1 µM throughout.
With `CC(=O)N1c2ccc(-c3ccn(-c4ccc(OCCOCCOCCOCCOCCOCCOCCOCCOCCNC(=O)CCNC(=O)c5nc(NC(=O)c6cc(NC(=O)CCNC(=O)c7nc(NC(=O)CCCNC(=O)c8cc(NC(=O)c9nc(NC(=O)CCNC(=O)c%10cc(NC(=O)c%11nccn%11C)cn%10C)cn9C)cn8C)cn7C)cn6C)cn5C)cc4)n3)cc2[C@H](Nc2ccc(C#N)cc2)C[C@@H]1C` [Compound A-59], the IC50 in experiment [1] and in experiment [2] was above 1 µM throughout.
As for `Cc1sc2c(c1C)C(c1ccc(Cl)cc1)=N[C@@H](CC(=O)Nc1ccc(OCCOCCOCCOCCOCCOCCOCCOCCOCCOCCOCCOCCOCCOCCOCCOCCNC(=O)c3cc(NC(=O)c4nc(NC(=O)c5cc(NC(=O)[C@@H](N)CCNC(=O)c6nc(NC(=O)CCNC(=O)c7cc(NC(=O)c8nccn8C)cn7C)cn6C)cn5C)cn4C)cn3C)cc1)c1nnc(C)n1-2` [Compound A-38], in experiment [1], the “GM 09197 E min 48 Hr C Allele (%)” value was “A (A>90%)” and the IC50 is above 1 µM. For the same molecule, in experiment [2], the IC50 was above 1 µM and the “Gm09197 Emin 48 hr T Allele (%)” value is given as “A (A>90%)”.
For the molecule `Cc1sc2c(c1C)C(c1ccc(Cl)cc1)=N[C@@H](CC(=O)Nc1ccc(OCCOCCOCCOCCOCCOCCOCCOCCOCCNC(=O)c3cc(NC(=O)c4nc(NC(=O)[C@H](N)CCNC(=O)c5cc(NC(=O)c6nc(NC(=O)CCNC(=O)c7cc(NC(=O)c8nccn8C)cn7C)cn6C)cn5C)cn4C)cn3C)cc1)c1nnc(C)n1-2` [Compound A-35], in experiment [1], the “GM 09197 E min 48 Hr C Allele (%)” value is “A (A>90%)” and the IC50 is above 1 µM. Besides, the IC50 in experiment [2] was above 1 µM.
Take `CCS(=O)(=O)Nc1ccc(Oc2ccc(F)cc2F)c(-c2cn(C)c(=O)c3[nH]c(C(=O)Nc4ccc(OCCOCCOCCOCCOCCOCCOCCOCCOCCNC(=O)c5cc(NC(=O)c6nc(NC(=O)[C@H](N)CCNC(=O)c7cc(NC(=O)c8nc(NC(=O)CCNC(=O)c9cc(NC(=O)c%10nccn%10C)cn9C)cn8C)cn7C)cn6C)cn5C)cc4)cc23)c1` [Compound A-21]: in experiment [1], the “GM 09197 E min 48 Hr C Allele (%)” value is “A (A>90%)” and the IC50 is above 1 µM. In experiment [2], the IC50 was above 1 µM and the “Gm09197 Emin 48 hr T Allele (%)” value is recorded as “A (A>90%)”.
As for `CC(=O)N1c2ccc(-c3ccn(-c4ccc(OCCOCCOCCOCCOCCOCCOCCOCCOCCOCCOCCOCCOCCOCCOCCOCCNC(=O)CCNC(=O)c5nc(NC(=O)c6cc(NC(=O)CCNC(=O)c7nc(NC(=O)CCCNC(=O)c8cc(NC(=O)c9nc(NC(=O)CCNC(=O)c%10cc(NC(=O)c%11nccn%11C)cn%10C)cn9C)cn8C)cn7C)cn6C)cn5C)cc4)n3)cc2[C@H](Nc2ccc(C#N)cc2)C[C@@H]1C` [Compound A-58], the IC50 in experiment [1] and in experiment [2] was above 1 µM each time.
Consider `Cc1noc(C)c1-c1ccc2c(c1)nc(CCc1ccc(OCCOCCOCCOCCOCCOCCOCCOCCOCCNC(=O)CCNC(=O)c3nc(NC(=O)c4cc(NC(=O)CCNC(=O)c5nc(NC(=O)CCCNC(=O)c6cc(NC(=O)c7nc(NC(=O)CCNC(=O)c8cc(NC(=O)c9nccn9C)cn8C)cn7C)cn6C)cn5C)cn4C)cn3C)c(Cl)c1)n2C[C@H](C)N1CCOCC1` [Compound A-53], for which, in experiment [1], the “GM 09197 E min 48 Hr C Allele (%)” value was “A (A>90%)” and the IC50 was above 1 µM. In addition, the IC50 in experiment [2] is above 1 µM.
Regarding `CCNS(=O)(=O)c1ccc(Oc2ccc(OCCOCCOCCOCCOCCOCCOCCOCCOCCOCCOCCOCCOCCOCCOCCOCCNC(=O)CCNC(=O)c3nc(NC(=O)c4cc(NC(=O)CCNC(=O)c5nc(NC(=O)CCCNC(=O)c6cc(NC(=O)c7nc(NC(=O)CCNC(=O)c8cc(NC(=O)c9nccn9C)cn8C)cn7C)cn6C)cn5C)cn4C)cn3C)cc2F)c(-c2cn(C)c(=O)c3[nH]ccc23)c1` [Compound A-68], the “GM 09197 E min 48 Hr C Allele (%)” value in experiment [1] is recorded as “A (A>90%)”. Also, in experiment [2], the IC50 turned out to be 0.017 µM and the “Gm09197 Emin 48 hr T Allele (%)” value is “C (C<80%)”.
Turning to `CC(=O)Nc1c(F)cc(C(=O)NC2CCC(O)CC2)cc1O[C@@H](C)c1cccc(OCCOCCOCCOCCOCCOCCOCCOCCOCCOCCOCCOCCOCCOCCOCCOCCNC(=O)CCNC(=O)c2nc(NC(=O)c3cc(NC(=O)CCNC(=O)c4nc(NC(=O)CCCNC(=O)c5cc(NC(=O)c6nc(NC(=O)CCNC(=O)c7cc(NC(=O)c8nccn8C)cn7C)cn6C)cn5C)cn4C)cn3C)cn2C)c1` (stereo partly drawn) [Compound A-31], the half-inhibitory concentration (IC50) in experiment [1] and in experiment [2] was above 1 µM each time.
With `CCS(=O)(=O)Nc1ccc(Oc2ccc(F)cc2F)c(-c2cn(C)c(=O)c3[nH]c(C(=O)Nc4ccc(OCCOCCOCCOCCOCCOCCOCCOCCOCCOCCOCCOCCOCCOCCOCCOCCNC(=O)CCNC(=O)c5nc(NC(=O)c6cc(NC(=O)CCNC(=O)c7nc(NC(=O)NCCNC(=O)c8cc(NC(=O)c9nc(NC(=O)CCNC(=O)c%10cc(NC(=O)c%11nccn%11C)cn%10C)cn9C)cn8C)cn7C)cn6C)cn5C)cc4)cc23)c1` [Compound A-74], the IC50 in experiment [1] and in experiment [2] was above 1 µM each time. Further, the “Gm09197 Emin 48 hr T Allele (%)” value in experiment [2] is listed as “A (A>90%)”.
As for `CCS(=O)(=O)Nc1ccc(Oc2ccc(F)cc2F)c(-c2cn(C)c(=O)c3[nH]c(C(=O)Nc4ccc(OCCOCCOCCOCCOCCOCCOCCOCCOCCOCCOCCOCCOCCOCCOCCOCCNC(=O)CCNC(=O)c5nc(NC(=O)c6cc(NC(=O)CCNC(=O)c7nc(NC(=O)OCCNC(=O)c8cc(NC(=O)c9nc(NC(=O)CCNC(=O)c%10cc(NC(=O)c%11nccn%11C)cn%10C)cn9C)cn8C)cn7C)cn6C)cn5C)cc4)cc23)c1` [Compound A-72], the IC50 in experiment [1] was above 1 µM. Moreover, in experiment [2], the IC50 was above 1 µM and the “Gm09197 Emin 48 hr T Allele (%)” value is recorded as “A (A>90%)”.
